Here are results for 3 molecules from patent US20260069558A1, “RXFP1 MODULATORS FOR TREATING RESISTANT HYPERTENSION OR HEART FAILURE WITH PULMONARY HYPERTENSION” (ASTRAZENECA AB, priority 2022, published 2026).

pEC50: −log10 of the molar value. In brackets after ≈: the same amount, converted by molar mass.

One data set addresses T1, human RXFP1 (Homo sapiens, UniProt Q9HBX9).
T1 construct: expressed in transfected cells; host or cells: Jump-In T-REx CHO-K1 cells (ThermoFisher)
T1 sequence (Q9HBX9 1-757): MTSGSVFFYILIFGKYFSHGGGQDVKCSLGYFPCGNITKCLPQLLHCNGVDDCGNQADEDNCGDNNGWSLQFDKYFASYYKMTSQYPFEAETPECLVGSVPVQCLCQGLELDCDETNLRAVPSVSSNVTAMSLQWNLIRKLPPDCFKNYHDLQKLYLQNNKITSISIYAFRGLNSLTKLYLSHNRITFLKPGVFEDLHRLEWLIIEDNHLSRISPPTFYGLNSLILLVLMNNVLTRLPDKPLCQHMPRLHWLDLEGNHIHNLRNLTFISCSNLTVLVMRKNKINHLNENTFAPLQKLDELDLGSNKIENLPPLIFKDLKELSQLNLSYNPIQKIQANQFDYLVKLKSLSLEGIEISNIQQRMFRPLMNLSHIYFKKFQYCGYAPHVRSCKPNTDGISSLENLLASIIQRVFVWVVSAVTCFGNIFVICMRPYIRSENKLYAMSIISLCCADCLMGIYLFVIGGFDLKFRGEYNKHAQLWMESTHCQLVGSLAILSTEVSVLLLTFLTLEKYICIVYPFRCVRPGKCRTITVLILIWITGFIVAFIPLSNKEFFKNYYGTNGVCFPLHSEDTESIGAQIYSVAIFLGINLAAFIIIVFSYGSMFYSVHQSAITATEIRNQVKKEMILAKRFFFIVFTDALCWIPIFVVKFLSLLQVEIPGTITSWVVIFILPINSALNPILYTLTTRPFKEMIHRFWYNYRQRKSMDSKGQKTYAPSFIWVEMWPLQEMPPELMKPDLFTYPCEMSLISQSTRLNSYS
Briefly: RXFP1 Hu cAMP (Test A), HTRF cAMP production. The class given is cell-based. As to conditions: for Test A Sinf: fitted efficacy at infinite concentration, normalized to response of 1 nM relaxin, arithmetic mean. The text has this: To screen for modulators of hRXFP1, an assay identifying compounds that stimulate cAMP production via the Gs-coupled hRXFP1 receptor was used. cAMP HiRange HTRF kit (available from CisBio Bioassays, France; catalogue number 62AM6PEJ) was employed in large according to manufacturer's recommendations for detection of cAMP. The HTRF method is a competitive immunoassay between native cAMP produced by cells and cAMP labeled with the dye d2. The tracer binding is visualized with a cryptate labeled antibody for cAMP and the signal is thus inversely proportional to the amount of produced cAMP.
Cells: Jump-In™ T-REx™ CHO-K1 Cells (ThermoFisher) stably transfected with human RXFP1 was employed. Cells were induced to express human RXFP1 by treatment with 10 ng/ml doxycycline for 24 h. Cells were then cryopreserved for long term storage.
HTRF detection reagents: cAMP-d2 and anti-cAMP cryptate reconstituted according to CisBio instructions were diluted 1:40 in lysis buffer provided with the HTRF-kit.
Using a cAMP standard curve, HTRF data was converted to amount cAMP produced in the samples which was subsequentially used for calculation of concentration responses.
Concentration response data were fitted with a four parameter logistic fit, the Hill equation.
Where the assay was run multiple times for the same compound, the geometric mean is reported.
Sinf is the fitted activity level, efficacy, at infinite concentration of test compound. To facilitate comparison of efficacy data, efficacy was normalized to % effect of the response stimulated by a saturating concentration of relaxin (1 nM). Where the assay was run multiple times for the same compound, the arithmetic mean is reported.
A general note: TR-FRET usually uses a lanthanide donor and a delayed reading to cut background.

A short description of data set [1]: Human Hepatocyte Stability (Test D). The note with it: cryopreserved pooled human hepatocytes (LiverPool 10-Donor), geometric mean. Type of data set: in vitro ADME. The protocol:
Human Hepatocyte Stability (Test D)
Prepare 10 mM stock solutions of compound and control compounds in appropriate solvent (DMSO). Place incubation medium (L-15 Medium) in a 37° C. water bath, and allow warming for at least 15 minutes prior to use. • 2. […] Remove a vial of cryopreserved (less than −150° C.) human hepatocytes (LiverPool™ 10-Donor Human hepatocytes obtained from Bioreclamation IVT (Product No. S01205)) from storage, ensuring that vials remain at cryogenic temperatures until thawing process ensues. As quickly as possible, thaw the cells by placing the vial in a 37° C. water bath and gently shaking the vials. Vials should remain in water bath until all ice crystals have dissolved and are no longer visible. After thawing is complete, spray vial with 70% ethanol, transfer the vial to a bio-safety cabinet. • 5. Open the vial and pour the contents into the 50 mL conical tube containing thawing medium. Place the 50 mL conical tube into a centrifuge and spin at 100 g for 10 minutes (room temperature). […] Using Cellometer® Vision, count cells and determine the viable cell density. […]
All calculations were carried out using Microsoft Excel. Peak areas were determined from extracted ion chromatograms. In vitro intrinsic clearance (in vitro Clint, in μL/min/10^6 cells) of parent compound was determined by regression analysis of the Ln percent parent disappearance vs. time curve.

Another data set is described as follows: Solubility (Test F). Type of data set: physicochemical. As to conditions: arithmetic mean. The protocol: The assay was conducted according to the Solubility Assay described in pages 164-167 of Wemevik, J. et al., “A Fully Integrated Assay Panel for Early Drug Metabolism and Pharmacokinetics Profiling”, Assay and Drug Development Technologies, 2020, 18(4), 157-179. Where the assay was run multiple times for the same compound, the arithmetic mean is reported.

Data set [2] in a line: Rat Hepatocyte Stability (Test E). The class given is in vitro ADME. As to conditions: rat hepatocytes; geometric mean. The protocol: Rat Hepatocyte Stability (Test E)
The assay was conducted according to the Rat Hepatocyte Stability Assay described in pages 170-174 of Wernevik, J. et al., “A Fully Integrated Assay Panel for Early Drug Metabolism and Pharmacokinetics Profiling”, Assay and Drug Development Technologies, 2020, 18(4), 157-179. Data are reported in Table 1 as mean Clint (μl/min/10^6 cells). Where the assay was run multiple times for the same compound, the geometric mean is reported.

A short description of data set [3]: Human Plasma Protein Binding (Test B). Type of data set: in vitro ADME. The note with it: fraction unbound (fu), arithmetic mean. As for the experimental part: Human Plasma Protein Binding (Test B)
The assay was conducted according to the Human Plasma Protein Binding Assay described in pages 167-170 of Wemevik, J. et al., “A Fully Integrated Assay Panel for Early Drug Metabolism and Pharmacokinetics Profiling”, Assay and Drug Development Technologies, 2020, 18(4), 157-179. Data are reported in Table 1 as fraction unbound (fu) (% free). Where the assay was run multiple times for the same compound, the arithmetic mean is reported.

Data set [4] in a line: Human Liver Microsomal Stability (Test C). The class given is in vitro ADME. As to conditions: human liver microsomes; arithmetic mean. As for the experimental part: Human Liver Microsomal Stability (Test C)
The assay was conducted according to the Human Liver Microsome Stability Assay described in pages 170-174 of Wemevik, J. et al., “A Fully Integrated Assay Panel for Early Drug Metabolism and Pharmacokinetics Profiling”, Assay and Drug Development Technologies, 2020, 18(4), 157-179. Data are reported in Table 1 as CLint (μl/min/mg protein).
Where the assay was run multiple times for the same compound, the arithmetic mean is reported.
(In general: Liver microsomes are vesicles of endoplasmic reticulum, rich in cytochrome P450 enzymes.)

For the molecule `COc1cc(F)c(O[C@H]2CC[C@@](C)(C(=O)O)CC2)cc1C(=O)N[C@@H]1[C@H]2CC[C@H](C2)[C@@H]1C(=O)NCC1CCC1` [Example 2, (1S,4s)-4-(5-(((1S,2R,3S,4R)-3-((cyclobutylmethyl)carbamoyl)bicyclo[2.2.1]heptan-2-yl)carbamoyl)-2-fluoro-4-methoxyphenoxy)-1-methylcyclohexane-1-carboxylic acid], the pEC50 – broadly, −log10 of the EC50, conventionally taken in molar units – on human RXFP1 (cAMP production, Jump-In T-REx CHO-K1 cells stably transfected with human RXFP1, geometric mean) was 6.64. Moreover, the “Test A Sinf” value at human RXFP1 worked out at 101%.
As for `COc1cc(C#N)c(O[C@H]2CC[C@@](C)(C(=O)O)CC2)cc1C(=O)N[C@@H]1[C@H]2CC[C@H](C2)[C@@H]1C(=O)NCC1CC1` [Example 3, (1S,4s)-4-(2-Cyano-5-(((1S,2R,3S,4R)-3-((cyclopropylmethyl)carbamoyl)bicyclo[2.2.1]heptan-2-yl)carbamoyl)-4-methoxyphenoxy)-1-methylcyclohexane-1-carboxylic acid], the “Test A Sinf” value at human RXFP1 is 97%.
`COc1cc(C#N)c(O[C@H]2CC[C@@](C)(C(=O)O)CC2)cc1C(=O)N[C@@H]1[C@H]2CC[C@H](C2)[C@@H]1C(=O)NCC(C)(C)C` [Example 5, (1S,4s)-4-(2-cyano-4-methoxy-5-(((1S,2R,3S,4R)-3-(neopentylcarbamoyl)bicyclo[2.2.1]heptan-2-yl)carbamoyl)phenoxy)-1-methylcyclohexane-1-carboxylic acid]: the hepatocyte CLint (usually a measure of how fast metabolising enzymes remove a compound, apart from limits set by blood flow) at 1 µM in data set [1] is less than 1.2 µL/min/1e6 cells. Moreover, the solubility (commonly the concentration that dissolves in the medium under given conditions) in the data set “Solubility (Test F)” amounted to 910 µM (≈ 491 µg/mL). The molecule also yielded a hepatocyte CLint in data set [2] of 15 µL/min/1e6 cells. For the same molecule, the “Test B Human Plasma Protein Binding (% free)” value in data set [3] came out at 12 % free. Also, the microsomal CLint (commonly a measure of how fast metabolising enzymes remove a compound, apart from limits set by blood flow) in data set [4] was less than 3 µL/min/mg.
